# From patent US20230414764A1, “Template Assembly by Proximity-Enhanced Reactivity via Metabolic Labeling” (The General Hospital Corporation, priority 2020, published 2023)
# “And” between values parts separate entries of the source, which are not always exact repeats. Equal entries are not always repeated.
# B1: mIFNβ: murine interferon-beta (protein, UniProt P01575 22-182, looked up)
# Interferon beta: INYKQLQLQERTNIRKCQELLEQLNGKINLTYRADFKIPMEMTEKMQKSYTAFAIQEMLQNVFLVFRNNFSSTGWNETIVVRLLDELHQQTVFLKTVLEEKQEERLTWEMSSTALHLKSYYWRVQRYLKLMKYNSYAWMVVRAEIFRNFLIIRRLTRNFQN
# How the values were obtained:
# [1] = test system: HeLa cells; assay: Flow cytometry of AzNAM-labeled HeLa cells reacted with DBCO-FAM; assay type: cell-based, human; settings: AzNAM 125 μM, 20 hours, versus cells receiving no azide-modified sugar
# Method: In separate cultures, HeLa cells were added to wells of a 12-well plate at 10,000 cells/well, and cultured for 72 hours under normal conditions. The wells were washed with 1 ml of PBS, and 0.5 ml of DMEM-10% FBS was added. AzNAM was added to a final concentration of 125 μM, with cells receiving no azide-modified sugar as controls. After 20 hours, cells were harvested with CellStripper (250 μl/well), washed with PBS, and subjected to flow analysis.
# [2] = test system: HeLa cells; assay: Surface template / ligation-template (LT) qPCR assay on azide-labeled HeLa cells; assay type: cell-based, human; settings: HeLa cells treated with greater than 6 μM of AzNAM
# Description: For example, a nuclease-resistant template (with a 2′-O-methyl RNA backbone) can be modified with a 5′ or 3′ DBCO group, allowing it to specifically react with azides on the surface of metabolically labeled cells. Following this, the template-bearing cells can be treated with two shorter “ligation template” (LT) oligonucleotides each complementary to contiguous regions of the template, and where one of the LT oligonucleotides bears a 5′-phosphate (LT1). After annealing, the 5′-phosphate of LT1 can be ligated with the 3′-hydroxyl on its partner LT (LT2) adjacent on the same template (see, FIG. 16). For this ligation, a ligase enzyme can be used that is compatible with modified nucleic acid backbones, such as Splint® Ligase (New England Biolabs). Since each LT oligonucleotide is also equipped with an additional priming site, the joined LT (1+2) sequence can be amplified by PCR, and can also easily be amenable to quantitation by qPCR. […]
# To apply the surface template/LT assay to azide-labeled HeLa cells, cells were treated with several concentrations of AzNAM in 6-well plates at about 80% confluency. After 20 hours, cells were removed from the plate with CellStripper, washed with […] (SF-RPMI), and counted. […]
# LT1 and LT2 oligonucleotides complementary to the surface template were added in equimolar quantities to a final concentration of 0.2 pmol/μl. […]
# [3] = test system: HeLa cells; assay: Azide metabolic labeling of HeLa cells with AzNAM, reaction with DBCO-FAM, fluorescent plate reader; assay type: cell-based, human; settings: AzNAM 10-125 μM, 20 hours, DBCO-FAM 10 μM, 96-well plate reader
# Method: Initially, cells were cultured in a suitable culture vessel such that their level of confluency at the time of addition of the azide-modified sugar, AzNAM, was not more than 80%.
# In particular, HeLa cells were plated in 6-well plates (2.5×10^4 cells/well) and incubated for 48 hours in DMEM-10% FBS medium in a standard 5% CO2 atmosphere. Medium from each well was removed, and each well was washed with 2 ml of phosphate buffered saline (PBS), and fresh DMEM-FBS (1 ml) added. Subsequently, varying amounts of AzNAM (solubilized in DMSO) were added to the wells in small (10 μl) volumes to produce the desired final concentrations in the range 10-125 μM (see, FIG. 1). After an additional 20 hours incubation, the medium in each well was removed, and the wells were washed with 2 ml of PBS, followed by addition of 1 ml of PBS. Then, a fluorescent azide reactive molecule, DBCO-FAM (Broadpharm), was directly added to each well to produce a final concentration of 10 μM.
# Plates with added DBCO-FAM were protected from bright light and incubated for 1 hour at room temperature. Supernatants in each well were removed, and each well was washed twice with 2 ml of PBS. […] After pelleting and washing in PBS, cells were resuspended in 150 μl of PBS and counted. Defined numbers in 50 μl volumes in a 96-well Blackwell plate (Corning) were assayed for fluorescence in a fluorescent plate reader (Tecan).
# [4] = test system: murine ovarian cancer cell line ID8; assay: Metabolic labeling (AzNAM/DPEG-FAM) of ID8 cells, flow cytometric analysis; assay type: cell-based
# Description: For Examples 7-11, metabolic labeling was monitored by treatment of cultured cells with the sugar analog peracetylated N-azidoacetylmannosamine (AzNAM), followed after harvest with treatment with the bifunctional click/fluorescent compound DBCO-PEG3-FAM (DPEG-FAM). Surface azide groups resulting from the metabolic labeling process react with the DBCO group (dibenzocyclooctyne) of DPEG-FAM, and were monitored by flow cytometry.
# The murine ovarian cancer cell line ID8 represent an example of a cell type giving a relatively low metabolic labeling response, as assessed by AzNAM/DPEG-FAM as usual, results shown in FIGS. 22A-22D. Subconfluent ID8 cells were treated with or without 100 ng/ml murine interferon-beta (mIFNβ), and then treated with AzNAM and DPEG-FAM in a similar manner as for the Jurkat cells of Examples 7 and 8. […] FIGS. 22A-22D show flow cytometric analysis of murine ID8 cells after treatment with 100 ng/ml murine IFN-beta for 3 days, with addition of 100 μM AzNAM at 22 hr prior to harvest. Cells were treated with DPEG-FAM prior to flow analysis.
# The murine-specific STING agonist DMXAA (R&D Systems) was used to test ID8 cells with a similar experimental arrangement as for Example 9. […] FIGS. 24A-24D show flow cytometric analysis of murine ID8 cells after treatment with 20 μM murine STING agonist DMXAA for 3 days, with addition of 100 μM AzNAM at 22 hr prior to harvest. Cells were treated with DPEG-FAM prior to flow analysis.
# [5] = test system: HeLa cells; assay: Detection of cell-surface template on AzNAM-labeled HeLa cells with bi-labeled FAM complementary probe, flow analysis; assay type: cell-based, human; settings: AzNAM-treated HeLa cells with surface template; 800 pmol probe, 30 minutes
# Description: Specific cell surface template (positioned by means of click chemical reactions with metabolically derived surface AzNAM; as described in Example 3) can be detected with alternate methods. One such approach uses probe nucleic acid molecules that are complementary to the template of interest, where both 5′- and 3′-ends of such probes are both modified with a fluorescent group, such as FAM.
# For example, HeLa cells with surface template of the same sequence as in Example 3 but with a DNA backbone were treated with a 5′/3′ bi-labeled complementary probe of sequence: […] (SEQ ID NO:72). The same cells were also treated with a control bi-labeled scrambled oligonucleotide of sequence CTT […] (SEQ ID NO:73). For treatments, 10^5 washed AzNAM-labeled HeLa cells in 100 μl of serum-free RPMI 1640 medium were incubated with 800 pmol of complementary or scrambled bi-labeled oligonucleotides for 30 minutes at room temperature. Cells were centrifuged (3 minutes at 2000 rpm) and washed once with 500 μl of serum-free RPMI 1640 medium and once with the same volume of PBS. Cells were finally resuspended in 200 μl of PBS and subjected to standard flow analysis.
# [6] = test system: Jurkat cells (human T lymphoma); assay: Metabolic labeling (AzNAM/DPEG-FAM) of Jurkat cells, flow cytometric analysis; assay type: cell-based
# Method: Surface azide groups resulting from the metabolic labeling process react with the DBCO group (dibenzocyclooctyne) of DPEG-FAM, and were monitored by flow cytometry.
# 22 hr prior to harvest, cell media were supplemented with […] AzNAM or control solvent only (DMSO). After harvest and washing, cells (10^6 cells/ml) were treated with 2 mM DPEG-FAM, washed, and subjected to flow cytometric analysis. […] FIGS. 20A-20D show flow cytometric analysis of human Jurkat cells after treatment with 100 ng/ml human IFN-beta for three days, with addition of 100 μM AzNAM at 22 hr prior to harvest. Cells were treated with DPEG-FAM prior to flow analysis.
# FIGS. 21A-21D show flow cytometric analysis of human Jurkat cells after treatment with 75 ng/ml human IFN-beta for 3 days, with addition of 100 μM AzNAM at 22 hr prior to harvest. Cells were treated with DPEG-FAM prior to flow analysis.
# FIGS. 23A-23D show flow cytometric analysis of human Jurkat cells after treatment with 50 μM STING agonist 1 (STAG1) for 3 days, with addition of 100 μM AzNAM at 22 hr prior to harvest. Cells were treated with DPEG-FAM prior to flow analysis.
molecule,measurement,setting,value
"CC(=O)OC[C@H]1OC(OC(C)=O)[C@@H](NC(=O)CN=[N+]=[N-])[C@@H](OC(C)=O)[C@@H]1OC(C)=O (some centres unmarked) [AzNAM, peracetylated N-azidoacetylmannosamine]",flow analysis peak shift,[1],marked and well-demarcated peak shifts
same,increase over background in formation of the templated LT product,[2],over an order of magnitude
same,cell-associated fluorescence,[3],increased as a function of the levels of AzNAM
same,geometric mean fluorescence (GM),"[4]; ID8/AzNAM (Ctrl): 100 μM AzNAM at 22 hr prior to harvest, no-treatment control, DPEG-FAM",37.68 and 19.14
Cc1ccc2c(=O)c3cccc(CC(=O)O)c3oc2c1C [DMXAA],geometric mean fluorescence (GM),"[4]; ID8/AzNAM+DMXAA: 20 μM DMXAA 3 days, 100 μM AzNAM 22 hr prior to harvest",33.73
same,geometric mean fluorescence (GM),"[4]; ID8/Ctrl+DMXAA: 20 μM DMXAA 3 days, control solvent only",1.67
same,AzNAM/DPEG-FAM response enhancement relative to the untreated value,"[4]; ID8, 20 μM DMXAA 3 days",1.8 fold
same,effect on comparably-treated DMSO controls,"[4]; ID8, 20 μM DMXAA 3 days",no effect
"complementary oligonucleotide: 5′/3′ FAM bi-labeled probe complementary to surface template, SEQ ID NO:72 (DNA TCCAGATGTCTTTGCTTTTCTTCAGGACACA; 5' and 3' FAM labels, chemistry not fully specified)",fluorescent peak relative to cells incubated with control scrambled oligonucleotide,[5],significantly shifted fluorescent peak
O=C(NCc1ccco1)c1ccc2c(c1)N(Cc1c(F)cccc1Cl)C(=O)CS2 [STAG1],impact on control DMSO-treated cells,"[6]; Jurkat, 50 μM STAG1 3 days",minimal
same,metabolic labeling enhancement relative to the untreated value,"[6]; Jurkat, 50 μM STAG1 3 days",1.2 fold
same,geometric mean fluorescence (GM),"[6]; Jurkats/AzNAM+STAG1: 50 μM STAG1 3 days, 100 μM AzNAM 22 hr prior to harvest",325.69
same,geometric mean fluorescence (GM),"[6]; Jurkats/DMSO+STAG1: 50 μM STAG1 3 days, control solvent only",1.47
B1,geometric mean fluorescence (GM),"[4]; ID8/AzNAM+mIFNβ: 100 ng/ml murine IFN-beta 3 days, 100 μM AzNAM 22 hr prior to harvest",80.58
same,geometric mean fluorescence (GM),"[4]; ID8/DMSO+mIFNβ: 100 ng/ml murine IFN-beta 3 days, control solvent only",16.49
same,labeling change in control DMSO cells,"[4]; ID8, 100 ng/ml mIFNβ 3 days",much reduced labeling increase
same,labeling enhancement of AzNAM-treated cells relative to the untreated value,"[4]; ID8, 100 ng/ml mIFNβ 3 days",2.1 fold
